In ChEMBL document CHEMBL1201862, “PubChem BioAssay data set” (2004):
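Grown in 96-well plates, cells were treated for 48 hours with each compound at five concentrations. Insufficient inhibition: endpoint recorded as highest concentration tested. Abbreviation: GI50, concentration required for 50% inhibition of growth.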 Calls of active or inactive are those of the source. No stated cut-off is given here; in the data, active = GI50 up to about 1.1 µM and inactive = higher.

Legend:
Experiment in all cases: DTP human tumour cell line panel, 48 h
T47D = test system: T47D
TK-10 = test system: TK-10
NCI-H23 = test system: NCI-H23
SK-OV-3 = test system: SK-OV-3
SNB-19 = test system: SNB-19
OVCAR-3 = test system: OVCAR-3
U-251 = test system: U-251
RPMI-8226 = test system: RPMI-8226
MOLT-4 = test system: MOLT-4
OVCAR-4 = test system: OVCAR-4
ACHN = test system: ACHN
KM12 = test system: KM12
SNB-75 = test system: SNB-75
SK-MEL-28 = test system: SK-MEL-28
SF-539 = test system: SF-539
786-0 = test system: 786-0
SR = test system: SR
HCC 2998 = test system: HCC 2998
MDA-MB-231 = test system: MDA-MB-231
M14 = test system: M14

Measured: GI50

COC(=O)c1cc(C)ccc1CC(Cc1ccc(C)cc1)C(=O)OC (configuration not stated)
inactive: T47D 30.8 µM | TK-10 > 100 µM | NCI-H23 9.4 µM | SK-OV-3 26.6 µM | SNB-19 > 100 µM | OVCAR-3 > 100 µM | U-251 42.1 µM | RPMI-8226 5.77 µM | MOLT-4 5.01 µM | OVCAR-4 38.8 µM | ACHN > 100 µM | KM12 10.8 µM | SNB-75 6.78 µM | SK-MEL-28 67.1 µM | SF-539 27.5 µM | 786-0 25.7 µM | SR 7.71 µM | HCC 2998 25.8 µM | MDA-MB-231 31.9 µM | M14 20.9 µM

C=C1CN(Cc2ccccc2)[C@@H]2CCCCC[C@H](C#N)[C@H]12
inactive: T47D > 100 µM | TK-10 > 100 µM | NCI-H23 > 93.1 µM | SK-OV-3 > 86.9 µM | SNB-19 > 100 µM | OVCAR-3 > 93.1 µM | U-251 > 94 µM | RPMI-8226 22.5 µM | MOLT-4 24.3 µM | OVCAR-4 > 100 µM | ACHN > 100 µM | KM12 > 100 µM | SNB-75 > 100 µM | SK-MEL-28 > 100 µM | SF-539 > 100 µM | 786-0 > 100 µM | SR > 47.8 µM | HCC 2998 > 100 µM | MDA-MB-231 > 100 µM | M14 > 100 µM

N#CI1OC(=O)c2ccccc21
inactive: T47D > 100 µM | TK-10 > 100 µM | NCI-H23 > 100 µM | SK-OV-3 > 100 µM | OVCAR-3 > 100 µM | U-251 > 100 µM | RPMI-8226 38.5 µM | MOLT-4 92.9 µM | OVCAR-4 > 100 µM | ACHN > 100 µM | KM12 > 100 µM | SNB-75 > 100 µM | SK-MEL-28 92 µM | SF-539 > 100 µM | 786-0 > 100 µM | SR 23.6 µM | HCC 2998 > 100 µM | MDA-MB-231 > 100 µM | M14 > 100 µM

CC1=C2NCN(C)N=C2C(C#N)(C#N)C1(C#N)C#N
inactive: T47D 21.7 µM | TK-10 16.4 µM | NCI-H23 14.1 µM | SK-OV-3 > 100 µM | SNB-19 36.9 µM | OVCAR-3 20.4 µM | U-251 28.9 µM | RPMI-8226 10.9 µM | MOLT-4 2.56 µM | OVCAR-4 20 µM | ACHN 17.9 µM | KM12 > 65.9 µM | SNB-75 > 51.1 µM | SK-MEL-28 21.6 µM | SF-539 27 µM | 786-0 19.5 µM | SR 6.49 µM | HCC 2998 21 µM | MDA-MB-231 19.6 µM | M14 23.8 µM

COc1ccc(-c2nc(Nc3ccccc3)sc2Cc2sc(Nc3ccccc3)nc2-c2ccc(OC)cc2)cc1
inactive: T47D 38.5 µM | TK-10 > 100 µM | NCI-H23 37.7 µM | SK-OV-3 > 100 µM | SNB-19 > 100 µM | OVCAR-3 17.1 µM | U-251 > 100 µM | RPMI-8226 1.8 µM | MOLT-4 12.6 µM | OVCAR-4 24.3 µM | ACHN 45.1 µM | KM12 8.59 µM | SNB-75 > 100 µM | SK-MEL-28 > 100 µM | SF-539 > 100 µM | 786-0 98.9 µM | SR 26 µM | HCC 2998 > 100 µM | MDA-MB-231 > 100 µM

CCOc1cc(NC(C)=O)ccc1C(=O)NN1C(=O)CSC1c1ccccc1 (configuration not stated)
active: MOLT-4 < 0.01 µM
inactive: T47D 25.7 µM | TK-10 48.8 µM | NCI-H23 66.7 µM | SK-OV-3 > 100 µM | SNB-19 > 100 µM | OVCAR-3 96.6 µM | RPMI-8226 26.1 µM | OVCAR-4 84.1 µM | ACHN > 100 µM | KM12 71.4 µM | SNB-75 95.3 µM | SK-MEL-28 > 100 µM | SF-539 > 100 µM | 786-0 > 100 µM | SR 9.86 µM | HCC 2998 > 100 µM | MDA-MB-231 > 100 µM | M14 > 100 µM
